For one test, the system named is MMP9. Kind of test: Protein expression level in MDA-MB-468 cells: MMP9. In kind it is cell-based, human. Conditions: compared to the control (untreated) cells.
The next test concerns IL-1β. Kind of test: Protein expression level in MDA-MB-468 cells: IL-1β. Conditions: compared to the control (untreated) cells. In kind it is cell-based, human.
The next test relates to Caspase 9. Kind of test: Protein expression level in MDA-MB-468 cells: Caspase 9. The format is cell-based, human. Conditions: in comparison to the control (untreated) cells.
The test system of a further test is Caspase 6. Kind of test: Protein expression level in MDA-MB-468 cells: Caspase 6. In kind it is cell-based, human. As to conditions: in comparison to the control (untreated) cells.
The next test relates to Caspase 8. Kind of test: Protein expression level in MDA-MB-468 cells: Caspase 8. In kind it is cell-based, human. As to conditions: in comparison to the control (untreated) cells.
Test [1] relates to human oral epithelial normal cell line (OEC). Kind of test: Growth inhibition of normal cell line OEC. The format is cell-based.
The subject of another test is COX-2. Kind of test: Protein expression level in MDA-MB-468 cells: COX-2. In kind it is cell-based, human. As to conditions: compared to the control (untreated) cells.
The test system of the next test is BCL-2. Kind of test: Protein expression level in MDA-MB-468 cells: BCL-2. The format is cell-based, human. Conditions: compared to the control (untreated) cells.
Another test relates to Caspase 3. Kind of test: Protein expression level in MDA-MB-468 cells: Caspase 3. The format is cell-based, human. As to conditions: in comparison to the control (untreated) cells.
Test [2] has as its system colorectal carcinoma (HCT116). Kind of test: Antitumor activity (growth inhibition) against HCT116. In kind it is cell-based. As to conditions: Homo sapiens, HCT-116, 100 μg/mL, read-out: growth inhibition percentage.
The test system of another test is cervical cancer (HeLa). Kind of test: Antitumor activity (growth inhibition, cytotoxic IC50) against HeLa. The format is cell-based. As to conditions: Homo sapiens; for inhibition at 100 µg/mL: 100 μg/mL, read-out: growth inhibition percentage.
For test [3], the system named is pharynx squamous carcinoma (FaDu). Kind of test: Antitumor activity (growth inhibition, cytotoxic IC50) against FaDu. In kind it is cell-based. As to conditions: Homo sapiens; for inhibition at 100 µg/mL: 100 μg/mL, read-out: growth inhibition percentage.
A further test concerns BAX. Kind of test: Protein expression level in MDA-MB-468 cells: BAX. The format is cell-based, human. Conditions: in comparison to the control (untreated) cells.
For the next test, the system named is p53. Kind of test: Protein expression level in MDA-MB-468 cells: p53. As to conditions: in comparison to the control (untreated) cells. The format is cell-based, human.
The subject of another test is prostate cancer (PC3). Kind of test: Antitumor activity (growth inhibition) against PC3. The format is cell-based. Conditions: Homo sapiens, 100 μg/mL, read-out: growth inhibition percentage.
In a further test the test system is IL-6. Kind of test: Protein expression level in MDA-MB-468 cells: IL-6. In kind it is cell-based, human. Conditions: compared to the control (untreated) cells.
Another test deals with MMP2. Kind of test: Protein expression level in MDA-MB-468 cells: MMP2. In kind it is cell-based, human. As to conditions: compared to the control (untreated) cells.
The subject of test [4] is human non-small cell lung cancer (A549). Kind of test: Antitumor activity (growth inhibition, cytotoxic IC50) against A549. The format is cell-based. As to conditions: for inhibition at 100 µg/mL: 100 μg/mL, read-out: growth inhibition percentage.
In test [5] the test system is triple-negative breast cancer (MDA-MB-468). Kind of test: Antitumor activity (growth inhibition, cytotoxic IC50) against MDA-MB-468. In kind it is cell-based. Conditions: Homo sapiens; for inhibition at 100 µg/mL: 100 μg/mL, read-out: growth inhibition percentage.
Setting [6] is: read-out: cytotoxic inhibitory concentration 50 (IC50).

The source of these data is patent publication US12285406B1, “Method of treating cancer with a selenide” (priority 2024, dated 2025).

The structures appear in SMILES notation. In brackets after ≈: the same amount, converted by molar mass.

Turning to `N#C[Se]CCCN1C(=O)c2ccccc2C1=O` [DS128, 2-(3-selenocyanatopropyl) isoindoline-1,3-dione], the “downregulation of MMP9 protein” value in the test on MMP9 is recorded as 0.47 times. For the same molecule, in the test on IL-1β, the “downregulation of IL-1β” value worked out at 0.42 times. Further, the “upregulation of Caspase 9 protein” value with Caspase 9 is reported as 2.00 times. In the test on Caspase 6, the “upregulation of Caspase 6 protein” value was 2.46 times. Besides, in the test with Caspase 8, the “upregulation of Caspase 8 protein” value stood at 6.71 times. In test [1], this molecule yielded a growth inhibition percentage of 40.02%. Further, in the test on COX-2, the “downregulation of COX-2” value came to 0.48 times. The “downregulation of BCL-2 protein” value with BCL-2 was 0.44 times. The “upregulation of Caspase 3 protein” value in the test on Caspase 3 is on record as 1.27 times. Moreover, the inhibition at 100 µg/mL in test [2] worked out at 78.5%; with cervical cancer (HeLa), 75.1%; in test [3], 83.8%; with prostate cancer (PC3), 83.2%; in [4] it was 77.7%; in [5], 86%. Besides, the IC50 in the test with cervical cancer (HeLa) (setting [6]) was 5.36 mg/L (≈ 18.3 µM); in test [3] (setting [6]), 5.46 mg/L (≈ 18.6 µM); in test [4] (setting [6]), 5.4 mg/L (≈ 18.4 µM); in test [5] (setting [6]) it was 4.33 mg/L (≈ 14.8 µM). Further, in the test on BAX, the “upregulation of BAX protein” value stood at 1.68 times. The “upregulation of p53 protein” value with p53 came to 1.77 times. Moreover, the “downregulation of IL-6” value in the test on IL-6 is 0.40 times. In addition, the “downregulation of MMP2 protein” value in the test on MMP2 turned out to be 0.43 times.

As for `COc1cccc2c1C(=O)c1c(O)c3c(c(O)c1C2=O)C[C@@](O)(C(=O)CO)C[C@@H]3O[C@H]1C[C@H](N)[C@H](O)[C@H](C)O1` [doxorubicin, reference compound], the growth inhibition percentage in [1] was found to be 57.89%. Besides, the inhibition at 100 µg/mL in [2] is 71%; in the test on cervical cancer (HeLa) it was 92.7%; in test [3] it was 92.9%; in the test with prostate cancer (PC3), 89.9%; in test [4], 86.4%; in test [5] it was 96%.

One may read the inhibition as the percentage by which the read-out fell short of the control.
